The subject of assay [1] is capsaicin-induced mechanical allodynia. The experiment in a line: Rat model of capsaicin-induced mechanical allodynia (paw withdrawal threshold, Von Frey). Particulars: male Sprague-Dawley rats, mean of eight animals; for inhibition in vivo at 10 mg/kg: Rattus norvegicus, po, 2 h, oral single dose 10 mg/kg, contralateral PWT at 2 hours after dose, read-out: % inhibition +/− SEM. The class given is in vivo. As for the experimental part: In certain embodiments, the compounds of formula I may be assayed for their ability to alleviate capsaicin-induced mechanical allodynia in a rat (e.g., Sluka, K A, (2002) J of Neuroscience, 22(13): 5687-5693). For example, a rat model of capsaicin-induced mechanical allodynia) can be carried out as follows:
On day 0, male Sprague-Dawley rats (˜150 g) in the dark cycle are placed in suspended wire-bottom cages and allowed to acclimate for 0.5 h in a darkened, quiet room. The day 0 paw withdrawal threshold (PWT) is determined on the left hind paw by Von Frey hair assessment using the Dixon up and down method. After assessment, the plantar muscle of the right hind paw is injected with 100 μl capsaicin (0.25% in 10% ethanol, 10% Tween 80, in sterile saline). On day 6 the PWT of the left hindpaw (contralateral from injection site) is determined for each animal. Animals from the day 6 prereads with PWT≦11.7 g are considered allodynic responders and are regrouped so that each cage had similar mean PWT values. On day 7, responders are dosed (e.g., orally, intraperitoneally, and subcutaneously, etc.) with 10 ml/kg vehicle (0.5% HPMC(hydroxy-propylmethylcellulose)/0.2% Tween™ 80), or vehicle plus compound. The contralateral PWT values are determined at 2 hours (or at about the time corresponding to the estimated Cmax) after the single dose, with the investigator blinded to the dosing scheme. Those of skill in the art can determine the appropriate time to determine the contralateral PWT value (e.g., 1 hour, 2 hours, etc.).
For each animal, the day 6 PWT value is subtracted from the 2 hour PWT value to give a delta PWT value that represents the change in PWT due to the 2 hour drug treatment. In addition, the day 6 PWT is subtracted from the day 0 PWT to give the baseline window of allodynia present in each animal. To determine % inhibition of allodynia of each animal normalized for vehicle controls, the following formula is used: % Inhibition of Allodynia=100×(Delta PWT(drug)−mean Delta PWT(vehicle))/(Baseline−mean Delta PWT(vehicle)). Pharmaceutically Acceptable Salts and Solvates
Compounds of the present invention may be assayed for their ability to alleviate capsaicin-induced mechanical allodynia in a rat model (e.g., Sluka (2002) J of Neuroscience, 22(13)5687-5693). For example, a rat model of capsaicin-induced mechanical allodynia was carried out as follows:
On day 0, male Sprague-Dawley rats (˜150 g) in the dark cycle were placed in suspended wire-bottom cages and allowed to acclimate for 0.5 hour in a darkened, quiet room. The day 0 paw withdrawal threshold (PWT) was determined on the left hind paw by Von Frey hair assessment using the Dixon up and down method. After assessment, the plantar muscle of the right hind paw was injected with 100 μl capsaicin (0.25% (w/v) in 10% ethanol, 10% Tween 80, in sterile saline). On day 6 the PWT of the left hindpaw (contralateral from injection site) was determined for each animal. Animals from the day 6 prereads with PWT≦11.7 g were considered allodynic responders and were regrouped so that each cage had similar mean PWT values.
On day 7, responders were dosed subcutaneously with 30 mg of the compound of Example 7/kg body weight, 10 mg of the compound of the compound of Example 48/kg body weight, or with vehicle alone. The vehicle was phosphate buffered saline containing 2% Cremophor®) EL (BASF).
For the animals dosed with the compound of Example 7, the contralateral PWT values were determined at 2 hour after the single dose, with the investigator blinded to the dosing scheme.
For each animal, the day 6 PWT value was subtracted from the 2 hour PWT value for the 10 mg/kg doses to give a delta PWT value that represents the change in PWT due to the […] drug treatment. In addition, the day 6 PWT was subtracted from the day 0 PWT to give the baseline window of allodynia present in each animal. […]

Assay [2] has as its target T1, human norepinephrine transporter (hNET) (Homo sapiens, UniProt P23975).
T1 construct: expressed in transfected cells; host or cells: HEK-293 cells (membrane preparation)
In words: hNET receptor binding ([125I]-RTI-55 displacement, membranes of transfected HEK-293 cells). To be noted: HEK-293 membranes, Ki from IC50 by Cheng-Prusoff, read-out: NET Ki. Summed up:
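Membranes from HEK-293 cells expressing human NET were incubated 90 min at room temperature with 50 pM [125I]-RTI-55 and compound (10^−5 to 10^−12 M) in Krebs-HEPES buffer, pH 7.4. Bound radioligand was counted after filtration, with nonspecific binding defined by 10 μM desipramine. IC50 was converted to Ki by Cheng-Prusoff.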

Assay [3] addresses T2, human serotonin transporter (hSERT) (Homo sapiens, UniProt P31645).
T2 construct: expressed in transfected cells; host or cells: HEK-293 cells (membrane preparation)
The experiment in a line: hSERT receptor binding ([125I]-RTI-55 displacement, membranes of transfected HEK-293 cells). To be noted: HEK-293 membranes, Ki from IC50 by Cheng-Prusoff, read-out: SERT Ki. An outline of the steps: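 Membranes from HEK-293 cells expressing human SERT were incubated 90 min at room temperature in Krebs-HEPES (pH 7.4) with 50 pM [125I]-RTI-55 and compound (10^-12 to 10^-5 M), in duplicate. Nonspecific binding was defined with 10 μM citalopram. Ki from IC50 by Cheng-Prusoff.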

Structures are written as SMILES. Structures can show the parent of a compound that is named as a salt.

Data on 6 molecules can be found in patent US7423054B2, “Therapeutic pyrazolo[3,4-b]pyridines and indazoles” (Warner Lambert Company LLC, priority 2004, dated 2008).

T2 sequence (P31645 whole entry): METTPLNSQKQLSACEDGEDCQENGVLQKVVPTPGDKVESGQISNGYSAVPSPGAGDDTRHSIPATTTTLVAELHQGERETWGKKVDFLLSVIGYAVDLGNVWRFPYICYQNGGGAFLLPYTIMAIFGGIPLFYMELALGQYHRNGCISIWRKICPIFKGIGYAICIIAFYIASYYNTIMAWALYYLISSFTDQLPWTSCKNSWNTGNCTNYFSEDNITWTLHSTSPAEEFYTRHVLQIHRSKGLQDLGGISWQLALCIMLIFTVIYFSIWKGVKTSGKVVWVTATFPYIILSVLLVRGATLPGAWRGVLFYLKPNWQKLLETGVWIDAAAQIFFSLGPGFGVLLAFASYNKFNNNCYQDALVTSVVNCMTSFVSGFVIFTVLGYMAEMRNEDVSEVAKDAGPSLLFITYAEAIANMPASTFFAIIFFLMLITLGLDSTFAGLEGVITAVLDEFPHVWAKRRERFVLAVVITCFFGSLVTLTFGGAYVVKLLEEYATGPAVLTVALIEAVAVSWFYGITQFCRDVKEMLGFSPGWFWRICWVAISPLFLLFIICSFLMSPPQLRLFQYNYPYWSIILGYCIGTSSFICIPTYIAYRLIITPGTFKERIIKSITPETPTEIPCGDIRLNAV
T1 sequence (P23975 whole entry): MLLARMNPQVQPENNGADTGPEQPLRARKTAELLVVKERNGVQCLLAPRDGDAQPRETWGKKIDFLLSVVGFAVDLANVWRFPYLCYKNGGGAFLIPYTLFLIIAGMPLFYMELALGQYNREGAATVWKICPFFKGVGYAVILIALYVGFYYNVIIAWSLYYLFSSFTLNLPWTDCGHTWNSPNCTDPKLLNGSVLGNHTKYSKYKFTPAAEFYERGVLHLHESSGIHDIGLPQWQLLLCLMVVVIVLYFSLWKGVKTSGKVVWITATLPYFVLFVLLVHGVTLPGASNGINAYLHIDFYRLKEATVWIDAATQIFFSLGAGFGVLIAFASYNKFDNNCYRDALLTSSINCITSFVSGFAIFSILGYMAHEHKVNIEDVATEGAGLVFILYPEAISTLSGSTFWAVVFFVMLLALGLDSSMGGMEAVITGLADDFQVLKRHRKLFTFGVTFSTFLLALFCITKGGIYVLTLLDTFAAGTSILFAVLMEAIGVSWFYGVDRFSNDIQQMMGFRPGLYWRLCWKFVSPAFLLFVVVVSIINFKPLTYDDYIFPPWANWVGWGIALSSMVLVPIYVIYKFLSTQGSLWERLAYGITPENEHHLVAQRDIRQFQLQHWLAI

The term Ki denotes the equilibrium dissociation constant of an inhibitor or competing ligand from its target. Turning to `Fc1cccc(-n2nc(OC3CCNCC3)c3ccccc32)c1` [Example 43, 1-(3-Fluoro-phenyl)-3-(piperidin-4-yloxy)-1H-indazole hydrochloride], in assay [1], the inhibition in vivo at 10 mg/kg turned out to be 55.4%. Moreover, the Ki was determined as 17.9 nM in assay [2] and 138 nM in assay [3].

On to `Fc1ccc2c(c1)c(OC[C@H]1CCCNC1)nn2-c1ccccc1F` [Example 45, (S)-(−)-5-Fluoro-1-(2-fluorophenyl)-3-(piperidin-3-ylmethoxy)-1H-indazole maleate], for which, in assay [1], the inhibition in vivo at 10 mg/kg amounted to 46.2%. Moreover, the Ki in assay [2] was 3.2 nM; in assay [3], 47.5 nM.

`Fc1ccc(-n2nc(OC[C@@H]3CNCCO3)c3cc(F)ccc32)c(F)c1.O=C(O)/C=C\C(=O)O` [Example 48, (S)-(+)-1-(2,4-Difluorophenyl)-5-fluoro-3-(morpholin-2-ylmethoxy)-1H-indazole maleate]: the “% Inhibition of Allodynia +/− SEM” value in assay [1] (subcutaneous single dose 10 mg/kg, contralateral PWT at 1 hour after dose) amounted to 74.9% +/− 14.8. Besides, the Ki worked out at 10.2 nM in assay [2] and 298 nM in assay [3].

Turning to `Fc1ccc2c(c1)c(OC1CCNCC1)nn2-c1ccccc1F` [Example 51, 5-Fluoro-1-(2-fluoro-phenyl)-3-(piperidin-4-yloxy)-1H-indazole hydrochloride], the inhibition in vivo at 10 mg/kg in assay [1] worked out at 26%. Moreover, the Ki in assay [2] is 11.9 nM; in assay [3] it was 53.7 nM.

For `Fc1ccc(-n2nc(OC3CCNCC3)c3cc(F)ccc32)c(F)c1` [Example 56, 1-(2,4-Difluoro-phenyl)-5-fluoro-3-(piperidin-4-yloxy)-1H-indazole hydrochloride], the inhibition in vivo at 10 mg/kg in assay [1] was 11%. Further, the values for the Ki in assay [2] and in assay [3] were 6.13 nM and 9.99 nM, respectively.

`Fc1ccccc1-n1nc(OC2CCNCC2)c2c(F)cccc21` [Example 100, 4-Fluoro-1-(2-fluoro-phenyl)-3-(piperidin-4-yloxy)-1H-indazole hydrochloride]: in assay [1], the inhibition in vivo at 10 mg/kg is 8.7%. For the same molecule, the values for the Ki in assay [2] and in assay [3] were 4.63 nM and 102 nM, respectively.
